# Calls of active or inactive are those of the source.
# Columns and labels:
# [1] = target: T1, Heat shock factor protein 1 (Mus musculus, UniProt P38532); experiment: enhancement of HSF1-driven luciferase signal – cell-based, NIH3T3, luminescence, dose retest, confirmation (AID 435004); assay type: functional;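 also: stress induced by proteasome inhibitor MG132 added 30 min after compound; luciferase reporter driven by HSF1 response element in NIH3T3 cells; actives raise luminescence as potentiators of the MG132 stress response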
# T1 sequence (P38532 whole entry): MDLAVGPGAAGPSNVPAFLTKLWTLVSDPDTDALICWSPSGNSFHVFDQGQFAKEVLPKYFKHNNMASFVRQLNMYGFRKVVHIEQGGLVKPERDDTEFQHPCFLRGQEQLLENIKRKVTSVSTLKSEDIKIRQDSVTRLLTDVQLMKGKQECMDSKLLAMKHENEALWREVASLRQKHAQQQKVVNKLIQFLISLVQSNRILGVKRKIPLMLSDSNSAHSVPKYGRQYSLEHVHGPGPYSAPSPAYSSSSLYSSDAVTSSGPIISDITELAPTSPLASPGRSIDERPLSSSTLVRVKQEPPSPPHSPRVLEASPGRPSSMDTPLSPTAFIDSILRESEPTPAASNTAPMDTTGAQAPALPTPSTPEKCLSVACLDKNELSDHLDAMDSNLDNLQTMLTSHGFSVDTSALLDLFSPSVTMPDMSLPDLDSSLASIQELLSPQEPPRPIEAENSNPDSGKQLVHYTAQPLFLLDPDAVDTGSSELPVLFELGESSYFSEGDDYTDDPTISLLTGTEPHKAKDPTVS
# [2] = target: 1-phosphatidylinositol 4,5-bisphosphate phosphodiesterase gamma-1 (Homo sapiens, UniProt P19174); experiment: Counterscreen for inhibitors of phospholipase C isozymes (PLC-B3): Fluorescence-based biochemical high throughput dose response assay to identify inhibitors of phospholipase C isozymes (PLC-gamma1).
# Sequence of 1-phosphatidylinositol 4,5-bisphosphate phosphodiesterase gamma-1 (P19174 whole entry): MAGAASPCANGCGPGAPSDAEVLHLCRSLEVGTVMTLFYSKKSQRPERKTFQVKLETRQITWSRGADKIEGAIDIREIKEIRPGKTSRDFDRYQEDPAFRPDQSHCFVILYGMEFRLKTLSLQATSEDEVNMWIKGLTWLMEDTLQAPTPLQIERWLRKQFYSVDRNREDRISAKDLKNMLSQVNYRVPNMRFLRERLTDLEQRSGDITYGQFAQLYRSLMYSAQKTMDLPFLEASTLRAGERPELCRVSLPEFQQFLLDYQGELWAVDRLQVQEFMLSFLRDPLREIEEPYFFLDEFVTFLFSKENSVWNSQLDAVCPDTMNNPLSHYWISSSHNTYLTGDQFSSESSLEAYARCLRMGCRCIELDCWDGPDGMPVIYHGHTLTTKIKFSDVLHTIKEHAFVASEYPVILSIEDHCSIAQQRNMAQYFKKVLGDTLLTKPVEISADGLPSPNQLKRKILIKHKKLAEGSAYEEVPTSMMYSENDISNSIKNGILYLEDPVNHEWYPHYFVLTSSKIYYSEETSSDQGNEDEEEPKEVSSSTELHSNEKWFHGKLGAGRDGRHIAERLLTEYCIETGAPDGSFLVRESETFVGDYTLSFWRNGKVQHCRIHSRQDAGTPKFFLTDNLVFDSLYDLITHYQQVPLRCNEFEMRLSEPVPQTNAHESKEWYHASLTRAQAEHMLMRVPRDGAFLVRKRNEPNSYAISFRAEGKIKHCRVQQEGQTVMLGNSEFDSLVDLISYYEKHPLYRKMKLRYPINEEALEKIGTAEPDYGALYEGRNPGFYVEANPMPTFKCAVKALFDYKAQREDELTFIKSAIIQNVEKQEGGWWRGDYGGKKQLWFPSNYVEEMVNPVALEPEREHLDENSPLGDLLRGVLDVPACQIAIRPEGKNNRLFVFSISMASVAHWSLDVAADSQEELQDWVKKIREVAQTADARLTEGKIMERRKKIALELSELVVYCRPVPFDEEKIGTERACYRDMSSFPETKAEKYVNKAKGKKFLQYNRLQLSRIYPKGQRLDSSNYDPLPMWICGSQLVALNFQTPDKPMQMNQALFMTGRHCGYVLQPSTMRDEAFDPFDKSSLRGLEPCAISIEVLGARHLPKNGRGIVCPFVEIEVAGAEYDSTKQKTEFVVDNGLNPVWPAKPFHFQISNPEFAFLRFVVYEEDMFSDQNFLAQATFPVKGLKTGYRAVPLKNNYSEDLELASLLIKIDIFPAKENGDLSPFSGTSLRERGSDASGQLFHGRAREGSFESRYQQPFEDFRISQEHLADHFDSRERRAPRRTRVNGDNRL
# [3] = target: 1-phosphatidylinositol 4,5-bisphosphate phosphodiesterase beta-3 (Homo sapiens, UniProt Q01970); experiment: Fluorescence-based biochemical high throughput dose response assay to identify inhibitors of phospholipase C isozymes (PLC-B3).
# Sequence of 1-phosphatidylinositol 4,5-bisphosphate phosphodiesterase beta-3 (Q01970 whole entry): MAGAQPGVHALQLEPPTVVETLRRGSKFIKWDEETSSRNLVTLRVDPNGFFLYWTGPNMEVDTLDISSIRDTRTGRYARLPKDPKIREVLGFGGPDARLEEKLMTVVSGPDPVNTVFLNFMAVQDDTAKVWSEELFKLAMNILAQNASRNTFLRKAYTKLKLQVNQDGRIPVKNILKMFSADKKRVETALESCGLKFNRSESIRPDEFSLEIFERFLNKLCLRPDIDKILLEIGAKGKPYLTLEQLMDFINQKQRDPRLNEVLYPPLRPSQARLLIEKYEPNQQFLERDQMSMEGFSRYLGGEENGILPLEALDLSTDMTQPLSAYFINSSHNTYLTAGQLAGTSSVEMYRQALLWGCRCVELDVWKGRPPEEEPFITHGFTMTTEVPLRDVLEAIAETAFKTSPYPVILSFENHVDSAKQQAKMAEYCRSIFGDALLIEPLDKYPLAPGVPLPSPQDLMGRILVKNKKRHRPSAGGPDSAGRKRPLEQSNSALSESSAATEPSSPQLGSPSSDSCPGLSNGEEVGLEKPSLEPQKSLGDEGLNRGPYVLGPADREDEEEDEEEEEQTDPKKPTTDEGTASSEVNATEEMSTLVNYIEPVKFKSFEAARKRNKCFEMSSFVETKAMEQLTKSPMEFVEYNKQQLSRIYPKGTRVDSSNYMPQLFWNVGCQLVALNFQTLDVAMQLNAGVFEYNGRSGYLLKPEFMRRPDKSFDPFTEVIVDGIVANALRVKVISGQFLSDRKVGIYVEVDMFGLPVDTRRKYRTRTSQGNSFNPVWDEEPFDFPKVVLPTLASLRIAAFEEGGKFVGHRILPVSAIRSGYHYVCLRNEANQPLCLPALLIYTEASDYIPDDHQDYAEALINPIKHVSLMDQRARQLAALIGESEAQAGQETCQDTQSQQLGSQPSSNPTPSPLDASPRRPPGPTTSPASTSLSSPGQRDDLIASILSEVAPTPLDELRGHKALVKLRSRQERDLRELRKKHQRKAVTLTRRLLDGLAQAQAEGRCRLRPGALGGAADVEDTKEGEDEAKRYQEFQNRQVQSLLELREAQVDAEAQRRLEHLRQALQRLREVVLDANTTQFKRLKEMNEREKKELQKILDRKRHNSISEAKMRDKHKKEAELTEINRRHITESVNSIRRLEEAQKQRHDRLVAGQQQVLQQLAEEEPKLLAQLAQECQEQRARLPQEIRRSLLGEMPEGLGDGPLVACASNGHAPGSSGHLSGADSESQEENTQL
# [4] = cells; assay type: functional, cell-based
# [5] = target: T2, Trace amine-associated receptor 1 (Homo sapiens, UniProt Q96RJ0); experiment: Fluorescence-based cell-based high throughput dose response assay to identify agonists of the human trace amine associated receptor 1 (TAAR1).; assay type: functional
# T2 sequence (Q96RJ0 whole entry): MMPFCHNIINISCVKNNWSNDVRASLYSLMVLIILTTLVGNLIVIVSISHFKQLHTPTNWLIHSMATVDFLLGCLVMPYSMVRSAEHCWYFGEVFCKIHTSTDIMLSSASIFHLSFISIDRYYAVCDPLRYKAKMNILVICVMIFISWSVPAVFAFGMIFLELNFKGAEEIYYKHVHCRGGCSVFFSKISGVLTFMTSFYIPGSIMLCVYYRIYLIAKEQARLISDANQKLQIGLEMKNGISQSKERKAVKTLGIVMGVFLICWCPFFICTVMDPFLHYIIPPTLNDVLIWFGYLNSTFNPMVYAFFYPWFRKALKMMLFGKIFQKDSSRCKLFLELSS
# [6] = target: T2, Trace amine-associated receptor 1; experiment: Counterscreen for agonists of the human trace amine associated receptor 1 (hTAAR1): Fluorescence-based cell-based high throughput dose response assay to identify hTAAR1 agonist that also desensitize TAAR1 receptor response.; assay type: functional
# [7] = cells; assay type: functional, cell-based; remark: listed apart in the source
# [8] = general mammalian cell viability loss – inhibitor set, cherry-pick, set 2, cytotoxicity control for miR-122 modulator project, dose response (AID 720697); assay type: functional, cell-based
# [9] = target: Beta-galactosidase (Escherichia coli, UniProt Q8VNN2); experiment: Dose response counterscreen for EBI2 assay utilizing the enzyme, b-galactosidase.; assay type: functional
# Sequence of Beta-galactosidase (Q8VNN2 whole entry): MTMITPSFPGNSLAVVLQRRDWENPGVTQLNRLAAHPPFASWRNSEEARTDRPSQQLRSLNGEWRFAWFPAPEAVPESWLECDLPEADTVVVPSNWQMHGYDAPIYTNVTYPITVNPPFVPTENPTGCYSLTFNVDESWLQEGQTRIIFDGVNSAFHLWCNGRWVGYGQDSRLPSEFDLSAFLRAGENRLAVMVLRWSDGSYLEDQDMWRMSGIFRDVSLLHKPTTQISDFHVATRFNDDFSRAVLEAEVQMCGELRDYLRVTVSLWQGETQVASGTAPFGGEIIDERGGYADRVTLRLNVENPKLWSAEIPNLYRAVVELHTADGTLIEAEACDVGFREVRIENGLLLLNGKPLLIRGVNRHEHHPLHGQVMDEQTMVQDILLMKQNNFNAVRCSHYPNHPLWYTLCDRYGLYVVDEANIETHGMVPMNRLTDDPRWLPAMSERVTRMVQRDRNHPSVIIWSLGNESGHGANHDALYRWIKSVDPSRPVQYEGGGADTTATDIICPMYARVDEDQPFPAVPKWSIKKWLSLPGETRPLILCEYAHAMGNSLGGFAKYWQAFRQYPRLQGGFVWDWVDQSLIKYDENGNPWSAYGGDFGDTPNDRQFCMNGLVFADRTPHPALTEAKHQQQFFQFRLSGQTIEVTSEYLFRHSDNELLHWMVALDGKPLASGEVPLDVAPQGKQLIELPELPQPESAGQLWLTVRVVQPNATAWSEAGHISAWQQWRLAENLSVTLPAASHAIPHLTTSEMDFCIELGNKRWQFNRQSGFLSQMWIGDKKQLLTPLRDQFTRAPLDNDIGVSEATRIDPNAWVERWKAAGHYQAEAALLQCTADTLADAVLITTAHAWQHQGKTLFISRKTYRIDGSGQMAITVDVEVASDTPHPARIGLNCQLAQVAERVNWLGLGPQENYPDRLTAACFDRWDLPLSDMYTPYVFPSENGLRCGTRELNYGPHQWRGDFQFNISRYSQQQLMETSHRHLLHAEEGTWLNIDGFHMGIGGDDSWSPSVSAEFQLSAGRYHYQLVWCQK
# [10] = target: Tyrosine-protein phosphatase non-receptor type 11 (Homo sapiens, UniProt Q06124); experiment: PTPN11 enzyme inhibitors – biochemical, selectivity assay for STEP inhibitor project, dose response (AID 602367); assay type: functional; conditions: read-out: IC50_Mean
# Sequence of Tyrosine-protein phosphatase non-receptor type 11 (Q06124 whole entry): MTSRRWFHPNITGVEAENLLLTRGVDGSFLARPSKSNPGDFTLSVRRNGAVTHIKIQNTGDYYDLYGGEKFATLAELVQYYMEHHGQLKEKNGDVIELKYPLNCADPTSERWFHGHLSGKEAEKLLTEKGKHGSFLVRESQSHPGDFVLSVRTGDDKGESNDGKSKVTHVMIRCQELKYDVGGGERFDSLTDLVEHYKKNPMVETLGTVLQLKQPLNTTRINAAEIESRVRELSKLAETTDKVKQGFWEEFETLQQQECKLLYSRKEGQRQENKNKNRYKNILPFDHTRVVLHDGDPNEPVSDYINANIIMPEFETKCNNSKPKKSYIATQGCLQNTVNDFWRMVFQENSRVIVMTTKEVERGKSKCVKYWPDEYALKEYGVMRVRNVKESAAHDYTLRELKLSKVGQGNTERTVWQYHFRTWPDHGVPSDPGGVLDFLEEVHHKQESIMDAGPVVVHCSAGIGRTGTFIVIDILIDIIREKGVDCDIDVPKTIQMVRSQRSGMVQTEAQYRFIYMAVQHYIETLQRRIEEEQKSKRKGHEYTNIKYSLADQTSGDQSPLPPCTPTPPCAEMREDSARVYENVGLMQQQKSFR
# [11] = target: Tyrosine-protein phosphatase non-receptor type 5 (Homo sapiens, UniProt P54829); experiment: PTPN5 enzyme inhibition – biochemical, fluorescence intensity, uHTS hits, confirmation (AID 602372); assay type: functional; conditions: read-out: IC50_Mean
# Sequence of Tyrosine-protein phosphatase non-receptor type 5 (P54829 whole entry): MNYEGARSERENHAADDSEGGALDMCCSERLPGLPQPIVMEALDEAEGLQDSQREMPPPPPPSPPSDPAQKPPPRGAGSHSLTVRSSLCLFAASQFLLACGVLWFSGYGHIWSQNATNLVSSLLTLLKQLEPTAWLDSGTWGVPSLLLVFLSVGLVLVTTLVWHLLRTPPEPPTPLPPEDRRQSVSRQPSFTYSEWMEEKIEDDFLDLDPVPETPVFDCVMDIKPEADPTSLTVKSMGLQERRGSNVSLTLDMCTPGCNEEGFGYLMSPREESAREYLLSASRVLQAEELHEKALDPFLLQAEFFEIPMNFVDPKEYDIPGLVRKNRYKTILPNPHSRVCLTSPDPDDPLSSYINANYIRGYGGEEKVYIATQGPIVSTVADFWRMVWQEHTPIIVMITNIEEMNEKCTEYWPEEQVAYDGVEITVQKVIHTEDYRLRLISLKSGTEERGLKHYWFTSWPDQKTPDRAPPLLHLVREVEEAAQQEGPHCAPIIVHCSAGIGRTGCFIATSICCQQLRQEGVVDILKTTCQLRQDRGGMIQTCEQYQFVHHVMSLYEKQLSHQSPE
# [12] = target: Dual specificity protein phosphatase 3 (Homo sapiens, UniProt P51452); experiment: VHR phosphatase inhibition, dose response, selectivity assay for STEP inhibitor project, biochemical (AID 602374); assay type: functional; conditions: read-out: IC50_Mean
# Sequence of Dual specificity protein phosphatase 3 (P51452 whole entry): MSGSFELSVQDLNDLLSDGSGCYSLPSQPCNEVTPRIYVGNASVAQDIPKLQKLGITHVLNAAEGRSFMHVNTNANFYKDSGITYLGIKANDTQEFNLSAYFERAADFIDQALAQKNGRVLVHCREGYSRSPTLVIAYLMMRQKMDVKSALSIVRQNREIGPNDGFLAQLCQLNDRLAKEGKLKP
# [13] = target: T3, Tyrosine-protein phosphatase non-receptor type 22 (Homo sapiens, UniProt Q9Y2R2); experiment: lymphoid phosphatase LYP inhibitors – biochemical, selectivity assay for STEP inhibitor project, dose response (AID 624241); assay type: functional
# T3 sequence (Q9Y2R2 whole entry): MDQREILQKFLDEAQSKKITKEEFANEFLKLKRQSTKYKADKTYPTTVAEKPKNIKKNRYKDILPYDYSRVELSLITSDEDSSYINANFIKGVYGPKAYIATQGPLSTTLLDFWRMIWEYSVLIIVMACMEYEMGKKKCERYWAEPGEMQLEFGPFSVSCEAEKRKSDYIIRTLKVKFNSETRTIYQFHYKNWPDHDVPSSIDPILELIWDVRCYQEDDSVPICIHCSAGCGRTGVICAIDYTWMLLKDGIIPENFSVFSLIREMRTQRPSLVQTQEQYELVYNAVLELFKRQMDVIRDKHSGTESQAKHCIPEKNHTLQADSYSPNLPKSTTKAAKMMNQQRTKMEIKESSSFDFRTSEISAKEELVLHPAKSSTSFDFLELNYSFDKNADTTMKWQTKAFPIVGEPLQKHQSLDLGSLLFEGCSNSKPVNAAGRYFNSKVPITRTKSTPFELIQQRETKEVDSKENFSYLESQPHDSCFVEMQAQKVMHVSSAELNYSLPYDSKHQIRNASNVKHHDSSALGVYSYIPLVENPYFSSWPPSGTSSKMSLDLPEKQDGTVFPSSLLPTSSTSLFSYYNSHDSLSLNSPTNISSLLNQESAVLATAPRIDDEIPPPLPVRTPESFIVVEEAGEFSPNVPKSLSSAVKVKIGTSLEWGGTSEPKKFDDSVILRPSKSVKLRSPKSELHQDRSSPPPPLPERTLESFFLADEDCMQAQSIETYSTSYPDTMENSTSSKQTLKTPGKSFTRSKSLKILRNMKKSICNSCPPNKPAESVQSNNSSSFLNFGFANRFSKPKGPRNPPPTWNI
# [14] = A549 cell cytotoxicity, dose response, cytotoxicity control, plate reader, cherry-pick, antagonist series (AID 743412); assay type: functional, cell-based
# [15] = toxicity toward HepG2 liver cells – cell-based, plate reader, cherry-pick, antagonist series, cytotoxicity control, dose response (AID 743416); assay type: functional
# [16] = viability of uninfected HEp-2 cells – cell-based, HTS, cytotoxicity control for RSV inhibitor project, dose response (AID 2410); assay type: functional; conditions: human respiratory syncytial virus
# [17] = blockers of bursicon-stimulated LGR2 cAMP reporter – cell-based, HEK293, CRE-luciferase reporter, cherry pick, set 2, dose response (AID 743343); assay type: functional;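 also: transfected cells were stimulated with diluted bursicon conditioned medium after compound addition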
# [18] = blockade of melanocortin 4 receptor signaling – cell-based, plate reader, cherry pick, counter-screen for LGR2 antagonist project, dose response (AID 743444); assay type: functional;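 also: transfected HEK 293 cells stimulated with alpha-MSH peptide; potency of inhibitors of the alpha-MSH evoked signal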
# [19] = viability loss in HEK293 cells – cell-based, plate reader, cherry-picked samples, cytotoxicity control, dose response (AID 743446); assay type: functional
# [20] = cells
# [21] = target: T4, Sentrin-specific protease 1 (Homo sapiens, UniProt Q9P0U3); experiment: SENP1 catalytic domain blockers, concentration series – biochemical, kinetic FRET, dose response (AID 651697); assay type: functional; conditions: read-out: IC50_Mean
# T4 sequence (Q9P0U3 whole entry): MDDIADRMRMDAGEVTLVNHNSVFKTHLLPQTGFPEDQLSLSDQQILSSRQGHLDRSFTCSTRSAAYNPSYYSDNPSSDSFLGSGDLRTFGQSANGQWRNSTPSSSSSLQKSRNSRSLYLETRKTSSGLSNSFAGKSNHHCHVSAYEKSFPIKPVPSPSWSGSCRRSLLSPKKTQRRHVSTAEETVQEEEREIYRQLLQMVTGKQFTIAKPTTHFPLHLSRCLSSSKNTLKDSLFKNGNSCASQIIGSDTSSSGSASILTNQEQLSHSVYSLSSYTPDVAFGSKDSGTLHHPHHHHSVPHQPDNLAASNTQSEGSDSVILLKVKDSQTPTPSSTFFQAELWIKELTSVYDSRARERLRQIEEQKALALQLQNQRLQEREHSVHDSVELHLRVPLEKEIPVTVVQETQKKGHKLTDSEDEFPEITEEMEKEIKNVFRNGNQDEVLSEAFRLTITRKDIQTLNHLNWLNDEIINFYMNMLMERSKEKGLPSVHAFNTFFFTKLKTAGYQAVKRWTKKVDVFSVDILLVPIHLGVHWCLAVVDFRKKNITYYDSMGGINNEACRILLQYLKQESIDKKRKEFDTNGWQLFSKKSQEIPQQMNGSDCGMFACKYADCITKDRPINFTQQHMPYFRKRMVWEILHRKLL
# [22] = target: T4, Sentrin-specific protease 1; experiment: Dose response confirmation of small molecule inhibitors of the catalytic domain of the SUMO protease, SENP1 in a FRET assay.; assay type: functional; conditions: read-out: IC50_Mean
# [23] = cells; assay type: functional, cell-based; remark: listed apart in the source
# [24] = target: T5, Nuclear receptor subfamily 0 group B member 1 (Homo sapiens, UniProt P51843); assay type: functional, cell-based;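 also: HEK293T cells transfected with SF-1 and DAX-1 plus StAR promoter luciferase reporter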
# T5 sequence (P51843 whole entry): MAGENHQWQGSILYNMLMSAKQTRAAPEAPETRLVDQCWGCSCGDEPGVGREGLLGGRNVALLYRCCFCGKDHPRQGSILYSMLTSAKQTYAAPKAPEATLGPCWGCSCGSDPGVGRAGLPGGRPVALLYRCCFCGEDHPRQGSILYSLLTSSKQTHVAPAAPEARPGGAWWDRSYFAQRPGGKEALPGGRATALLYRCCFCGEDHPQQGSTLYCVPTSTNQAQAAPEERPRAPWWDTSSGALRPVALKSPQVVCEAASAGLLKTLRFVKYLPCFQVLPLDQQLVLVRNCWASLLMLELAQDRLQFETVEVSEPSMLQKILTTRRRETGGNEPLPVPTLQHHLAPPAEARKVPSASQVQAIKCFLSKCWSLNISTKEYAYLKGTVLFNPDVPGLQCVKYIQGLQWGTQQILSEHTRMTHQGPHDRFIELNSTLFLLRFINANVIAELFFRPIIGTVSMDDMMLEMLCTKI
# [25] = target: Ras and Rab interactor 1/Tyrosine-protein kinase ABL1 (Homo sapiens, UniProt P00519+Q13671); assay type: functional;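 also: biochemical TR-FRET dose-response test measuring inhibition of binding between Rin1 and Abl proteins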
# [26] = tested on: HeLa; experiment: viability loss in HeLa cells – cell-based, ATP luminescence, cherry-pick samples, cytotoxicity control, dose response (AID 687004); assay type: functional; conditions: Homo sapiens
# [27] = anti-trypanosomal activity in BESM host cells – imaging, CA-I/72 strain, bovine embryo skeletal muscle, dry powder, dose response (AID 651885); assay type: functional, cell-based
smiles,measurement,setting,value
CC/C(NCc1ccco1)=C1/C(=O)NC(=O)N(C2CCCCC2)C1=O,EC50,[1],> 260 µM (inactive)
same,IC50,[2],> 122 µM (inactive)
same,IC50,[3],> 122 µM (inactive)
CCc1ccccc1S(=O)(=O)Cc1ccc(C(=O)NCCc2ccccc2)o1,IC50,[4],20 µM (inactive)
same,EC50,[5],4.46 µM (active)
same,IC50,[6],6.38 µM (active)
same,EC50,[7],> 29.9 µM (inactive)
COc1ccc(-c2c(C(C)=O)c(C)nc3sc4c(c23)NC(c2ccccc2)NC4=O)cc1 (stereo unspecified),AC50,[8],2.66 µM (active)
CCCCCn1c(=O)[nH]c2cc(C(=O)NCCN3C(C)CCCC3C)ccc2c1=O (stereo unspecified),AC50,[8],2.22 µM (active)
O=C(COc1ccc(Cl)cc1)N1CCN(Cc2ccccc2)CC1,IC50,[9],> 80 µM (inactive)
COc1cc(/C=C2/SC(=S)N(CC(=O)O)C2=O)ccc1OCC(=O)Nc1ccc(C)c(C)c1,IC50,[10],3.64 µM (active)
same,IC50,[11],6.72 µM (active)
same,IC50,[12],4.32 µM (active)
same,IC50,[13],16.5 µM (active)
COc1ccc(CCNC(=O)C2CCN(S(=O)(=O)c3ccc(Cl)cc3)CC2)cc1OC,AC50,[14],35.3 µM (active)
same,AC50,[15],35.2 µM (active)
COc1ccccc1N(Cc1ccccc1)S(=O)(=O)c1cccc(C(=O)Nc2cc(C)ccn2)c1,CC50,[16],21.8 µM (active)
same,AC50,[14],32.2 µM (active)
same,AC50,[17],4.92 µM (active)
same,AC50,[18],3.95 µM (active)
same,AC50,[19],4.09 µM (active)
same,IC50,[20],38.5 µM (active)
O=C(O)CN1C(=O)S/C(=C2/C(=O)Nc3ccccc32)C1=O,IC50,[21],13.7 µM (active)
same,IC50,[22],3.7 µM (active)
O=C(NN=Cc1ccccc1O)c1cccc([N+](=O)[O-])c1,IC50,[10],2.39 µM (active)
same,IC50,[11],8.95 µM (active)
same,IC50,[12],3.13 µM (active)
same,IC50,[13],> 100 µM (inactive)
COc1ccc(-c2cc(NC=O)c3ncc(-c4ccc(OC)c(OC)c4)n3c2)c(OC)c1,IC50,[23],> 67.6 µM (inactive)
same,IC50,[24],> 67.6 µM (inactive)
OC[C@@H]1CN(Cc2ccc(Cl)cc2)C[C@H](n2cnc3c(NC4CC4)ncnc32)O1,IC50,[25],37.2 µM (inactive)
same,IC50,[9],> 80 µM (inactive)
COc1cccc(-c2nc(SC)nc3sc(C(=O)NC(C)(C)C)c(N)c23)c1,IC50,[21],19.1 µM (active)
same,IC50,[22],15.2 µM (active)
Cc1ccccc1C(=O)N[C@H](C(=O)N1CCC[C@H]1C(=O)NCCc1ccccc1Cl)C(C)C,IC50,[4],> 3.32 µM (active)
same,EC50,[5],1.64 µM (active)
same,IC50,[6],3.15 µM (active)
same,EC50,[7],> 29.9 µM (inactive)
O=C(C1CCOCC1)N1C[C@H]2[C@@H](c3ccccc31)[C@@H](CO)N2Cc1ccccc1Cl,AC50,[26],> 52 µM (inactive)
Cc1ccc(N2CCN(C(CCc3ccccc3)C(=O)Nc3c(C)cccc3C)CC2)cc1 (stereo unspecified),AC50,[26],> 52 µM (inactive)
C[C@@H]1CN([C@@H](C)CO)C(=O)c2cc(Br)cnc2O[C@H]1CN(C)Cc1ccc2c(c1)OCO2,IC50,[27],> 20 µM (inactive)
